Assay results reported in US11446287B2, “Compounds and methods for EP300 or CBP modulation and indications therefor” (Opna Immuno-Oncology SA, priority 2019, dated 2022).

target: T1, Recombinant human BRD4 containing dual bromodomains (BRD4-BD12 (1-477)) (Homo sapiens, UniProt O60885); experiment: BRD4 Alphascreen binding assay
T1 construct: Recombinant human BRD4 containing dual bromodomains (BRD4-BD12 (1-477)); made in house; host or cells: E. coli BL21-CodonPlus (DE3), modified pET vector
Protocol: BRD4 Alphascreen Binding Assay
Binding of compounds of Formula (I) with BRD4 was assessed using Alphascreen binding assay. The inhibition of the interaction between BRD4 and its acetylated target protein was measured quantitatively using recombinant BRD4 protein, an acetylated Histone 4 peptide, and AlphaScreen™ technology. In absence of inhibition of the BRD4 protein bound to AlphaScreen™ nickel chelate acceptor beads can interact with the acetylated Histone 4 peptide which was immobilized by the AlphaScreen™ Streptavidin coated beads. This interaction brings donor and acceptor beads in proximity. The close proximity allows the singlet oxygen produced by laser excitation of the donor beads to reach the acceptor beads and generate a luminescence signal. BRD4 inhibitors result in a decrease in the proximity signal through an inhibition of the BRD4—acetylated peptide interaction.
Recombinant human BRD4 containing dual bromodomains (BRD4-BD12 (1-477)) was prepared and purified as described in protein expression and purification session. The peptide was human Histone H41-21K5AcK8AcK12AcK16Ac-Biotin (Anaspec CA, USA).
Protocol for BRD4 assay: All components are prepared in buffer composed of 50 mM HEPES pH 7.5, 50 mM NaCl, 0.01% BSA, 0.01% Triton X-100, 2 mM DTT. Test compounds and DMSO vehicle are diluted 1:50 in buffer and a 4 μL volume was transferred to an Alphaplate. 5.5 μL of Bromodomain protein and 5.5 μL of peptide are added to wells containing 4 μL of various concentrations of test compounds of Formula (I) or DMSO vehicle in an Alphaplate (PerkinElmer GA, USA) and incubated for 1 hour at room temperature. 5 μL donor and acceptor bead mixture was then added with final concentrations of 7.5 μg/ml. 30 minutes after bead addition, Alpha signal was read on the Envision spectrometer (λEx 680 nm, λEm 520-620 nm). Final concentrations of bromodomain proteins and peptide are as shown below.
All data were normalized to the mean of 16 high and 16 low control wells on each plate. A four parameter curve fit of the following formula was then applied: Y=A+((B−A)/(1+((C/x)^D))) Where ‘A’ is the minimum, ‘B’ is the maximum, ‘C’ is the IC50 and ‘D’ is the Hill slope. Protein Expression and Purification
Recombinant human BRD4 containing dual bromodomains (BRD4-BD12 (1-477)) was expressed in E. coli cells (in a modified pET vector) with an N-terminal six-His tag and purified using a combination of both IMAC (Ni-affinity) and size exclusion chromatography steps.
Recombinant BRD4 was expressed using the E. coli strain BL21-CodonPlus (DE3) (Agilent Technologies CA, USA). Cells were grown in Terrific Broth (TB) media to an OD600 of 2.0 at 37° C. at which temperature was reduced to 18° C., protein was induced with 0.1 mM isopropyl-β-D-thiogalactopyranoside (“IPTG”) for 12-18 hours and harvested by centrifugation at 8000×g for 20 minutes. Cells were re-suspended in 40 mM Tris-HCl pH 8.0, 0.5 M NaCl, 25 mM Imidazole, 5% glycerol, 1/200 vol. Protease Inhibitor Cocktail Set III (Calbiochem), 5 mM beta-mercaptoethanol (“BME”), 0.5 mg/mL Lysozyme, and 0.5 mg/mL DNaseI, incubated on ice for 30 minutes and lysed with a cell disruptor (MicroFluidics MA, USA). The lysate was clarified by centrifugation at 20,000×g for 2 hours. The protein was captured with Ni-NTA resin (Life Technologies, USA). Contaminating proteins were washed off with 40 mM Tris-HCl pH 8.0, 0.5 M NaCl, 25 mM Imidazole, 5% glycerol, and 5 mM BME. Following 3× wash steps, protein was eluted step wise into wash buffer containing 50, 100, 150, 500 mM Imidazole. The protein was further purified using Gel Filtration column 16/60 Superdex 200 (GE Biosciences NJ, USA) in 10 mM HEPES pH 8.0, 150 mM NaCl, and 5 mM DTT. Glycerol was added to a final concentration of 12% and the protein was aliquoted and flash-frozen in liquid Nitrogen.

First: Cc1noc(C)c1-c1cnc2c(c1)c(-c1ccc(C(=O)O)cc1OCC(F)(F)F)cn2[C@@H](C)c1ccccn1 [P-0115, (S)-4-(5-(3,5-dimethylisoxazol-4-yl)-1-(1-(pyridin-2-yl)ethyl)-1H-pyrrolo[2,3-b]pyridin-3-yl)-3-(2,2,2-trifluoroethoxy)benzoic acid]
Second: Cc1noc(C)c1-c1cnc2c(c1)c(-c1ccc(C(=O)O)cc1C(F)(F)F)cn2[C@@H](C)c1ccccn1 [P-0116, (S)-4-(5-(3,5-dimethylisoxazol-4-yl)-1-(1-(pyridin-2-yl)ethyl)-1H-pyrrolo[2,3-b]pyridin-3-yl)-3-(trifluoromethyl)benzoic acid]
The IC50 of the first is higher: 8 to 1000 µM for the first, 1 to 8 µM for the second. The second is the more potent here.

Compared with `CCCOc1cc(C(=O)O)cc(OCCC)c1-c1cn([C@@H](C)c2ccccn2)c2ncc(-c3c(C)noc3C)cc12` [P-0117, (S)-4-(5-(3,5-dimethylisoxazol-4-yl)-1-(1-(pyridin-2-yl)ethyl)-1H-pyrrolo[2,3-b]pyridin-3-yl)-3,5-dipropoxybenzoic acid], `Cc1noc(C)c1-c1cnc2c(c1)c(-c1c(OC(C)C)cc(C(=O)O)cc1OC(C)C)cn2[C@@H](C)c1ccccn1` [P-0118, (S)-4-(5-(3,5-dimethylisoxazol-4-yl)-1-(1-(pyridin-2-yl)ethyl)-1H-pyrrolo[2,3-b]pyridin-3-yl)-3,5-diisopropoxybenzoic acid] is higher in IC50: 1 to 8 µM for the first, 8 to 1000 µM for the second. The first is the more potent here.

Compared with `COc1cc(C(=O)O)cc(OC)c1-c1cn(C(C)c2ccccc2)c2cc(-c3c(C)noc3C)cnc12` (stereo not drawn) [P-0119, 4-(6-(3,5-dimethylisoxazol-4-yl)-1-(1-phenylethyl)-1H-pyrrolo[3,2-b]pyridin-3-yl)-3,5-dimethoxybenzoic acid], `COc1c(C(=O)O)cccc1-c1cn(C(C)c2ccccc2)c2cc(-c3c(C)noc3C)cnc12` (stereo not drawn) [P-0136, 3-(6-(3,5-dimethylisoxazol-4-yl)-1-(1-phenylethyl)-1H-pyrrolo[3,2-b]pyridin-3-yl)-2-methoxybenzoic acid] is lower in IC50: 1 to 8 µM for the first, 0.0001 to 1 µM for the second. The second is the more potent here.

Compared with `Cc1noc(C)c1-c1cnc2c(-c3ccccc3C(=O)O)cn(C(C)c3ccccc3)c2c1` (stereo not drawn) [P-0120, 2-(6-(3,5-dimethylisoxazol-4-yl)-1-(1-phenylethyl)-1H-pyrrolo[3,2-b]pyridin-3-yl)benzoic acid], `Cc1noc(C)c1-c1cnc2c(c1)c(-c1cccc(C(=O)O)n1)cn2C(C)c1ccccn1` (stereo not drawn) [P-0122, 6-(5-(3,5-dimethylisoxazol-4-yl)-1-(1-(pyridin-2-yl)ethyl)-1H-pyrrolo[2,3-b]pyridin-3-yl)picolinic acid] is higher in IC50: 1 to 8 µM for the first, 8 to 1000 µM for the second. The first is the more potent here.

`Cc1noc(C)c1-c1cnc2c(C(=O)C3CCC3)cn(-c3c(Cl)cc(C(=O)O)cc3Cl)c2c1` [P-0121, 3,5-dichloro-4-(3-(cyclobutanecarbonyl)-6-(3,5-dimethylisoxazol-4-yl)-1H-pyrrolo[3,2-b]pyridin-1-yl)benzoic acid] and `Cc1noc(C)c1-c1cnc2c(C(=O)c3cccc(OC(F)F)c3)cn(-c3c(Cl)cc(C(=O)O)cc3Cl)c2c1` [P-0129, 3,5-dichloro-4-(3-(3-(difluoromethoxy)benzoyl)-6-(3,5-dimethylisoxazol-4-yl)-1H-pyrrolo[3,2-b]pyridin-1-yl)benzoic acid] fall in the same range of IC50: 1 to 8 µM for the first, 1 to 8 µM for the second.

`Cc1noc(C)c1-c1cnc2c(c1)c(-c1ccc(C(=O)O)cn1)cn2C(C)c1ccccn1` (stereo not drawn) [P-0123, 6-(5-(3,5-dimethylisoxazol-4-yl)-1-(1-(pyridin-2-yl)ethyl)-1H-pyrrolo[2,3-b]pyridin-3-yl)nicotinic acid] and `Cc1noc(C)c1-c1cnc2c(c1)c(-c1cc(C(=O)O)ccn1)cn2C(C)c1ccccn1` (stereo not drawn) [P-0124, 2-(5-(3,5-dimethylisoxazol-4-yl)-1-(1-(pyridin-2-yl)ethyl)-1H-pyrrolo[2,3-b]pyridin-3-yl)isonicotinic acid] fall in the same range of IC50: 8 to 1000 µM for the first, 8 to 1000 µM for the second.

`Cc1noc(C)c1-c1cnc2c(c1)c(-c1ccc(F)c(C(=O)O)c1F)cn2[C@@H](C)c1ccccn1` [P-0125, (S)-3-(5-(3,5-dimethylisoxazol-4-yl)-1-(1-(pyridin-2-yl)ethyl)-1H-pyrrolo[2,3-b]pyridin-3-yl)-2,6-difluorobenzoic acid] and `Cc1noc(C)c1-c1cnc2c(c1)c(-c1ccnc(C(=O)O)n1)cn2C(C)c1ccccn1` (stereo not drawn) [P-0126, 4-(5-(3,5-dimethylisoxazol-4-yl)-1-(1-(pyridin-2-yl)ethyl)-1H-pyrrolo[2,3-b]pyridin-3-yl)pyrimidine-2-carboxylic acid] fall in the same range of IC50: 8 to 1000 µM for the first, 8 to 1000 µM for the second.

`CCCOc1cc(C(=O)O)cc(OCCC)c1-n1cc(CC2CCC2)c2ncc(-c3c(C)noc3C)cc21` [P-0127, 4-(3-(cyclobutylmethyl)-6-(3,5-dimethylisoxazol-4-yl)-1H-pyrrolo[3,2-b]pyridin-1-yl)-3,5-dipropoxybenzoic acid] and `COc1ccc(-n2cc(CC3CCC3)c3ncc(-c4c(C)noc4C)cc32)cn1` [P-0134, 4-(3-(cyclobutylmethyl)-1-(6-methoxypyridin-3-yl)-1H-pyrrolo[3,2-b]pyridin-6-yl)-3,5-dimethylisoxazole] fall in the same range of IC50: 8 to 1000 µM for the first, 8 to 1000 µM for the second.

`Cc1noc(C)c1-c1cnc2c(Cc3cccc(Cl)c3)cn(-c3c(Cl)cc(C(=O)O)cc3Cl)c2c1` [P-0128, 3,5-dichloro-4-(3-(3-chlorobenzyl)-6-(3,5-dimethylisoxazol-4-yl)-1H-pyrrolo[3,2-b]pyridin-1-yl)benzoic acid] and `Cc1noc(C)c1-c1cnc2c(Cc3ccccc3Cl)cn(-c3c(Cl)cc(C(=O)O)cc3Cl)c2c1` [P-0131, 3,5-dichloro-4-(3-(2-chlorobenzyl)-6-(3,5-dimethylisoxazol-4-yl)-1H-pyrrolo[3,2-b]pyridin-1-yl)benzoic acid] fall in the same range of IC50: 1 to 8 µM for the first, 1 to 8 µM for the second.

`Cc1noc(C)c1-c1cnc2c(CC3CCC3)cn(-c3ccc([N+](=O)[O-])cc3F)c2c1` [P-0130, 4-(3-(cyclobutylmethyl)-1-(2-fluoro-4-nitrophenyl)-1H-pyrrolo[3,2-b]pyridin-6-yl)-3,5-dimethylisoxazole] and `Cc1noc(C)c1-c1cnc2c(c1)c(-c1ccc(C(=O)O)cc1OCC1CC1)cn2[C@@H](C)c1ccccn1` [P-0138, (S)-3-(cyclopropylmethoxy)-4-(5-(3,5-dimethylisoxazol-4-yl)-1-(1-(pyridin-2-yl)ethyl)-1H-pyrrolo[2,3-b]pyridin-3-yl)benzoic acid] fall in the same range of IC50: 8 to 1000 µM for the first, 8 to 1000 µM for the second.

First: Cc1noc(C)c1-c1cnc2c(Cc3cccc(OCc4ccccc4)c3)cn(-c3c(Cl)cc(C(=O)O)cc3Cl)c2c1 [P-0132, 4-(3-(3-(benzyloxy)benzyl)-6-(3,5-dimethylisoxazol-4-yl)-1H-pyrrolo[3,2-b]pyridin-1-yl)-3,5-dichlorobenzoic acid]
Second: Cc1noc(C)c1-c1cnc2c(C(=O)c3cccc(OCc4ccccc4)c3)cn(-c3c(Cl)cc(C(=O)O)cc3Cl)c2c1 [P-0133, 4-(3-(3-(benzyloxy)benzoyl)-6-(3,5-dimethylisoxazol-4-yl)-1H-pyrrolo[3,2-b]pyridin-1-yl)-3,5-dichlorobenzoic acid]
The IC50 of the first is higher: 8 to 1000 µM for the first, 1 to 8 µM for the second.

`COc1cc(C(=O)O)cc(OCc2ccccc2)c1-c1cn([C@@H](C)c2ccccn2)c2ncc(-c3c(C)noc3C)cc12` [P-0135, (S)-3-(benzyloxy)-4-(5-(3,5-dimethylisoxazol-4-yl)-1-(1-(pyridin-2-yl)ethyl)-1H-pyrrolo[2,3-b]pyridin-3-yl)-5-methoxybenzoic acid] and `Cc1noc(C)c1-c1cnc2c(c1)c(-c1ccc(C(=O)O)cc1OC1COC1)cn2[C@@H](C)c1ccccn1` [P-0137, (S)-4-(5-(3,5-dimethylisoxazol-4-yl)-1-(1-(pyridin-2-yl)ethyl)-1H-pyrrolo[2,3-b]pyridin-3-yl)-3-(oxetan-3-yloxy)benzoic acid] fall in the same range of IC50: 8 to 1000 µM for the first, 8 to 1000 µM for the second.
